Measured values from the OligoGym collection.
HELM strings list units from the 5' end as sugar, base in round brackets, then linkage (d deoxyribose, r ribose, m 2'-O-methyl, p phosphodiester). Strings are as the collection lists them, not checked against the first reports. ss, as = sense and antisense strand; [lna] = locked nucleic acid (LNA)

Conditions: siRNA
Note: test system not given here.

Question: With “RNA1{r(C)p.r(U)p.r(U)p.r(A)p.r(C)p.r(G)p.r(C)p.r(U)p.r(G)p.r(A)p.r(G)p.r(U)p.r(A)p.r(C)p.r(U)p.r(U)p.r(C)p.r(G)p.r(A)p.[lna](T)p.[lna](T)}|RNA2{r(U)p.r(C)p.r(G)p.r(A)p.r(A)p.r(G)p.r(U)p.r(A)p.r(C)p.r(U)p.r(C)p.r(A)p.r(G)p.r(C)p.r(G)p.r(U)p.r(A)p.r(A)p.r(G)p.r(T)p.r(T)}$$$RNA1{StrandType:ss}|RNA2{StrandType:as}$” as the substance, how does the target mRNA knockdown read?
Answer: 97%

Question: Which target mRNA knockdown does the source give for “RNA1{r(C)p.r(U)p.r(U)p.r(A)p.r(C)p.r(G)p.r(C)p.r(U)p.r(G)p.r(A)p.r(G)p.r(U)p.r(A)p.r(C)p.r(U)p.r(U)p.r(C)p.r(G)p.r(A)p.d(T)p.d(T)}|RNA2{[lna](T)p.r(C)p.r(G)p.r(A)p.r(A)p.r(G)p.r(U)p.[lna](A)p.r(C)p.r(U)p.[lna](C)p.r(A)p.r(G)p.r(C)p.r(G)p.r(U)p.[lna](A)p.r(A)p.r(G)p.[lna](T)p.[lna](T)}$$$RNA1{StrandType:ss}|RNA2{StrandType:as}$” here?
Answer: 15%

Question: Which target mRNA knockdown does the source give for “RNA1{r(C)p.r(U)p.r(U)p.r(A)p.r(C)p.r(G)p.r(C)p.r(U)p.r(G)p.r(A)p.r(G)p.r(U)p.r(A)p.r(C)p.r(U)p.r(U)p.r(C)p.r(G)p.r(A)p.d(T)p.d(T)}|RNA2{[lna](T)p.r(C)p.r(G)p.r(A)p.r(A)p.r(G)p.r(U)p.r(A)p.r(C)p.r(U)p.r(C)p.r(A)p.r(G)p.r(C)p.r(G)p.r(U)p.r(A)p.r(A)p.r(G)p.[lna](T)p.[lna](T)}$$$RNA1{StrandType:ss}|RNA2{StrandType:as}$” here?
Answer: 55%

Question: With “RNA1{r(C)p.r(U)p.r(U)p.r(A)p.r(C)p.r(G)p.r(C)p.r(U)p.r(G)p.r(A)p.r(G)p.r(U)p.r(A)p.r(C)p.r(U)p.r(U)p.r(C)p.r(G)p.r(A)p.d(T)p.d(T)}|RNA2{r(U)p.r(C)p.r(G)p.r(A)p.r(A)p.r(G)p.r(U)p.r(A)p.r(C)p.[lna](T)p.r(C)p.r(A)p.r(G)p.r(C)p.r(G)p.r(U)p.r(A)p.r(A)p.r(G)p.[lna](T)p.[lna](T)}$$$RNA1{StrandType:ss}|RNA2{StrandType:as}$” as the substance, how does the target mRNA knockdown read?
Answer: 52%

Question: Which target mRNA knockdown does the source give for “RNA1{r(C)p.r(U)p.r(U)p.r(A)p.r(C)p.r(G)p.r(C)p.r(U)p.r(G)p.r(A)p.r(G)p.r(U)p.r(A)p.r(C)p.r(U)p.r(U)p.r(C)p.r(G)p.r(A)p.d(T)p.d(T)}|RNA2{r(U)p.r(C)p.r(G)p.r(A)p.r(A)p.r(G)p.r(U)p.r(A)p.r(C)p.[lna](T)p.r(C)p.r(A)p.r(G)p.r(C)p.r(G)p.r(U)p.r(A)p.r(A)p.r(G)p.[lna](T)p.r(T)}$$$RNA1{StrandType:ss}|RNA2{StrandType:as}$” here?
Answer: 93%

Question: Which target mRNA knockdown does the source give for “RNA1{r(C)p.r(U)p.r(U)p.r(A)p.r(C)p.r(G)p.r(C)p.r(U)p.r(G)p.r(A)p.r(G)p.r(U)p.r(A)p.r(C)p.r(U)p.r(U)p.r(C)p.r(G)p.r(A)p.d(T)p.d(T)}|RNA2{r(U)p.r(C)p.r(G)p.r(A)p.r(A)p.r(G)p.r(U)p.r(A)p.r(C)p.r(U)p.r(C)p.r(A)p.r(G)p.r(C)p.r(G)p.r(U)p.r(A)p.r(A)p.r(G)p.[lna](T)p.[lna](T)}$$$RNA1{StrandType:ss}|RNA2{StrandType:as}$” here?
Answer: 92%

Question: With “RNA1{r(C)p.r(U)p.r(U)p.r(A)p.r(C)p.r(G)p.r(C)p.r(U)p.r(G)p.r(A)p.r(G)p.r(U)p.r(A)p.r(C)p.r(U)p.r(U)p.r(C)p.r(G)p.r(A)p.r(T)p.r(T)}|RNA2{[lna](T)p.r(C)p.r(G)p.r(A)p.r(A)p.r(G)p.[lna](T)p.r(A)p.r(C)p.[lna](T)p.r(C)p.r(A)p.r(G)p.r(C)p.r(G)p.[lna](T)p.r(A)p.r(A)p.r(G)p.[lna](T)p.[lna](T)}$$$RNA1{StrandType:ss}|RNA2{StrandType:as}$” as the substance, how does the target mRNA knockdown read?
Answer: 19%

Question: For “RNA1{r(C)p.r(U)p.r(U)p.r(A)p.r(C)p.r(G)p.r(C)p.r(U)p.r(G)p.r(A)p.r(G)p.r(U)p.r(A)p.r(C)p.r(U)p.r(U)p.r(C)p.r(G)p.r(A)p.r(T)p.r(T)}|RNA2{[lna](T)p.r(C)p.r(G)p.r(A)p.r(A)p.r(G)p.r(U)p.r(A)p.r(C)p.r(U)p.r(C)p.r(A)p.r(G)p.r(C)p.r(G)p.r(U)p.r(A)p.r(A)p.r(G)p.[lna](T)p.[lna](T)}$$$RNA1{StrandType:ss}|RNA2{StrandType:as}$”, which target mRNA knockdown is on record?
Answer: 57%

Question: With “RNA1{r(C)p.r(U)p.r(U)p.r(A)p.r(C)p.r(G)p.r(C)p.r(U)p.r(G)p.r(A)p.r(G)p.r(U)p.r(A)p.r(C)p.r(U)p.r(U)p.r(C)p.r(G)p.r(A)p.r(T)p.r(T)}|RNA2{r(T)p.r(C)p.[lna](G)p.r(A)p.r(A)p.r(G)p.r(U)p.r(A)p.r(C)p.r(U)p.r(C)p.r(A)p.r(G)p.r(C)p.r(G)p.r(U)p.r(A)p.r(A)p.r(G)p.[lna](T)p.[lna](T)}$$$RNA1{StrandType:ss}|RNA2{StrandType:as}$” as the substance, how does the target mRNA knockdown read?
Answer: 90%

Question: With “RNA1{r(C)p.r(U)p.r(U)p.r(A)p.r(C)p.r(G)p.r(C)p.r(U)p.r(G)p.r(A)p.r(G)p.r(U)p.r(A)p.r(C)p.r(U)p.r(U)p.r(C)p.r(G)p.r(A)p.r(T)p.r(T)}|RNA2{r(T)p.r(C)p.r(G)p.[lna](A)p.r(A)p.r(G)p.r(U)p.r(A)p.r(C)p.r(U)p.r(C)p.r(A)p.r(G)p.r(C)p.r(G)p.r(U)p.r(A)p.r(A)p.r(G)p.[lna](T)p.[lna](T)}$$$RNA1{StrandType:ss}|RNA2{StrandType:as}$” as the substance, how does the target mRNA knockdown read?
Answer: 91%

Question: For “RNA1{r(C)p.r(U)p.r(U)p.r(A)p.r(C)p.r(G)p.r(C)p.r(U)p.r(G)p.r(A)p.r(G)p.r(U)p.r(A)p.r(C)p.r(U)p.r(U)p.r(C)p.r(G)p.r(A)p.r(T)p.r(T)}|RNA2{r(T)p.r(C)p.r(G)p.r(A)p.[lna](A)p.r(G)p.r(U)p.r(A)p.r(C)p.r(U)p.r(C)p.r(A)p.r(G)p.r(C)p.r(G)p.r(U)p.r(A)p.r(A)p.r(G)p.[lna](T)p.[lna](T)}$$$RNA1{StrandType:ss}|RNA2{StrandType:as}$”, which target mRNA knockdown is on record?
Answer: 88%

Question: With “RNA1{r(C)p.r(U)p.r(U)p.r(A)p.r(C)p.r(G)p.r(C)p.r(U)p.r(G)p.r(A)p.r(G)p.r(U)p.r(A)p.r(C)p.r(U)p.r(U)p.r(C)p.r(G)p.r(A)p.r(T)p.r(T)}|RNA2{r(T)p.r(C)p.r(G)p.r(A)p.r(A)p.[lna](G)p.r(U)p.r(A)p.r(C)p.r(U)p.r(C)p.r(A)p.r(G)p.r(C)p.r(G)p.r(U)p.r(A)p.r(A)p.r(G)p.[lna](T)p.[lna](T)}$$$RNA1{StrandType:ss}|RNA2{StrandType:as}$” as the substance, how does the target mRNA knockdown read?
Answer: 85%

Question: For “RNA1{r(C)p.r(U)p.r(U)p.r(A)p.r(C)p.r(G)p.r(C)p.r(U)p.r(G)p.r(A)p.r(G)p.r(U)p.r(A)p.r(C)p.r(U)p.r(U)p.r(C)p.r(G)p.r(A)p.r(T)p.r(T)}|RNA2{r(T)p.r(C)p.r(G)p.r(A)p.r(A)p.r(G)p.[lna](T)p.r(A)p.r(C)p.r(U)p.r(C)p.r(A)p.r(G)p.r(C)p.r(G)p.r(U)p.r(A)p.r(A)p.r(G)p.[lna](T)p.[lna](T)}$$$RNA1{StrandType:ss}|RNA2{StrandType:as}$”, which target mRNA knockdown is on record?
Answer: 93%

Question: For “RNA1{r(C)p.r(U)p.r(U)p.r(A)p.r(C)p.r(G)p.r(C)p.r(U)p.r(G)p.r(A)p.r(G)p.r(U)p.r(A)p.r(C)p.r(U)p.r(U)p.r(C)p.r(G)p.r(A)p.r(T)p.r(T)}|RNA2{r(T)p.r(C)p.r(G)p.r(A)p.r(A)p.r(G)p.r(U)p.[lna](A)p.r(C)p.r(U)p.r(C)p.r(A)p.r(G)p.r(C)p.r(G)p.r(U)p.r(A)p.r(A)p.r(G)p.[lna](T)p.[lna](T)}$$$RNA1{StrandType:ss}|RNA2{StrandType:as}$”, which target mRNA knockdown is on record?
Answer: 90%
